# Results taken from patent US8236792B2, “Substituted pyrrolidine amides as modulators of the histamine H3 receptor” (Janssen Pharmaceutica NV, priority 2008, dated 2012).
# Where two headings read alike, the source gives them in different places.
# Key:
# [1] = target: T1, cloned human H3 receptors (Homo sapiens, UniProt Q9Y5N1); experiment: H3 Receptor Binding (Human) Method 1; conditions: receptor stably expressed in SK-N-MC cells, free base forms, average of results
# T1 construct: expressed in transfected cells
# cloned rat H3 receptors = target: T2, cloned rat H3 receptors (Rattus norvegicus, UniProt Q9QYN8); experiment: H3 Receptor Binding (Rat)
# T2 construct: expressed in transfected cells
# Experimental: Compounds were tested for binding to cloned rat H3 receptors, stably expressed in SK-N-MC cells.
# Compounds were tested in their free base or hydrochloride salt forms.
# rat H3 receptor = target: T3, rat H3 receptor (Rattus norvegicus, UniProt Q9QYN8); experiment: Cyclic AMP Accumulation (rat H3 reporter subline); type: cell-based; conditions: SK-N-MC subline with reporter construct and rat H3 receptor; free base or trifluoroacetate salt; average; read-out: Rat pA2 (converted)
# T3 construct: expressed in transfected cells; host or cells: SK-N-MC sublines with a reporter construct
# Experimental: (§1) Sublines of SK-N-MC cells were created that expressed a reporter construct and either the human or rat H3 receptor. […] Compounds were tested in their free base or trifluoroacetate salt forms.
# human H3 receptor [2] = target: T4, human H3 receptor (Homo sapiens, UniProt Q9Y5N1); experiment: Cyclic AMP Accumulation (human H3 reporter subline); type: cell-based; set-up: expressed in transfected cells; host or cells: SK-N-MC sublines with a reporter construct; conditions: SK-N-MC subline with reporter construct and human H3 receptor; free base or trifluoroacetate salt; average; read-out: Human pA2 (converted)
# Experimental: as §1
# human H3 receptor [3] = target: T4, human H3 receptor; experiment: H3 Receptor Binding (Human) Method 2, [125I]-iodoproxyfan competitive radioligand binding; set-up: expressed in transfected cells
# T2 sequence (Q9QYN8 whole entry): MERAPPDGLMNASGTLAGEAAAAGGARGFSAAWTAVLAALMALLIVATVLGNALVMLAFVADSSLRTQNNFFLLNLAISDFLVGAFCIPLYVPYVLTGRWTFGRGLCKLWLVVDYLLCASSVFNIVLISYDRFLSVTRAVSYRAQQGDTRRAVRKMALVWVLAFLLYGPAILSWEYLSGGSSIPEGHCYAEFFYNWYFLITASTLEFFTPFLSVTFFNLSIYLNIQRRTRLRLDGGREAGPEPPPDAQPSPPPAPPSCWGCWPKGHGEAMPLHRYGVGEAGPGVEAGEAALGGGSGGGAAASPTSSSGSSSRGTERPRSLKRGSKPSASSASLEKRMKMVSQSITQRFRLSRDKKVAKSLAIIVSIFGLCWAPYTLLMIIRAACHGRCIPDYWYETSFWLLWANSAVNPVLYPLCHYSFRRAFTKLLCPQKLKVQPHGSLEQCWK
# T3 sequence (Q9QYN8 whole entry): as above
# T4 sequence (Q9Y5N1 whole entry): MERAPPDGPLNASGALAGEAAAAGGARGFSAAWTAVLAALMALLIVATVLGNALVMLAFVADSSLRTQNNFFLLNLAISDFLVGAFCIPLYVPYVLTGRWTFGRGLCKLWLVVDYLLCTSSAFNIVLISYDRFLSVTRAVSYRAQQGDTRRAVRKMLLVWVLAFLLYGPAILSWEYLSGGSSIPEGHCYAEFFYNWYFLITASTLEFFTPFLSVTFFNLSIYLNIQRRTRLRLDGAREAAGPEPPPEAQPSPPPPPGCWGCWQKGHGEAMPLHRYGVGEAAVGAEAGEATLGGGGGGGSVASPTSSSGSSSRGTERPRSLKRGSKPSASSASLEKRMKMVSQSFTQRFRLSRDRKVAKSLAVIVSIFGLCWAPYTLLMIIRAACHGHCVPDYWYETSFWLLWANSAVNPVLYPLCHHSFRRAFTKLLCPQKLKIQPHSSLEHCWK
# T1 sequence (Q9Y5N1 whole entry): as above
SMILES,Ki [1] [nM],Ki (cloned rat H3 receptors) [nM],Kb (rat H3 receptor) [nM],Kb (human H3 receptor [2]) [nM],Ki (human H3 receptor [3]) [nM],"Ki (cloned rat H3 receptors; receptor stably expressed in SK-N-MC cells, free base or hydrochloride salt, average of results, read-out: Rat H3 Ki) [nM]"
"CSc1ccc(O[C@H]2CN[C@H](C(=O)N3CCCN(C4CCC4)CC3)C2)cc1 [Example 96, (2S,4R)-2-(4-Cyclobutyl-[1,4]diazepane-1-carbonyl)-4-(4-methylsulfanyl-phenoxy)-pyrrolidine]",11,84,112,20.9,,
"CSc1ccc(O[C@@H]2CN[C@@H](C(=O)N3CCCN(C4CCC4)CC3)C2)cc1 [Example 71, (2R,4S)-4-(4-Methylsulfanyl-Phenoxy)-2-(4-cyclobutyl-[1,4]diazepane-1-carbonyl)-pyrrolidine]",,54,10.7,2.04,3,
"Cc1cc(O[C@@H]2CN[C@@H](C(=O)N3CCCN(C4CCC4)CC3)C2)ccc1Cl [Example 72, (2R,4S)-4-(4-Chloro-3-methyl-phenoxy)-2-(4-cyclobutyl-[1,4]diazepane-1-carbonyl)-pyrrolidine]",,,4.9,1.02,3,36
